Experimental data published in patent US6384061B1, “Hydantoin compounds and methods related thereto” (LG Chemical Ltd., priority 2000, dated 2002).

Legend:
Ras farnesyl transferase = molecular target: T1, Ras farnesyl transferase (Homo sapiens, UniProt P49354+P49356); experiment: Ras farnesyl transferase inhibiting activity (filter-binding, tritium-farnesylpyrophosphate, Ras-CVLS substrate); format: biochemical; conditions: recombinant Ras farnesyl transferase, 30 minutes at 37° C., read-out: Ftase IC50
T1 construct: made in house
Method: The enzyme reaction was performed in 50 μl of 50 mM Sodium HEPES buffer solution containing 25 mmol of potassium chloride. 25 mmol of magnesium chloride, 10 mmol of DTT and 50 μmol of zinc chloride. 1.5 μmol of Ras substrate protein, 0.15 μmol of tritium-farnesylpyrophosphate and 4.5 nmol of farnesyl transferase were used.
More specifically, in the initial step, farnesyl transferase was added to the above buffer solution, reaction was maintained for 30 minutes at 37° C. and then the reaction was stopped by adding 1 ml of ethanol solution containing 1M HCl. The formed precipitates were adsorbed to GF/B filter using Hopper harvestor(Hopper #225V) for filter-binding, washed with ethanol, and then radioactivity of the dried filter was measured using LKB β counter. Enzyme titer was measured in the unsaturated state of substrate where the concentrations of Ras substrate protein and farnesyl transferase have quantitative relationship. Enzyme inhibiting activity was measured using less than 5% of total reaction solution of the compound according to the present invention dissolved in dimethylsulfoxide(DMSO) solution as a reagent. Enzyme inhibiting activity was represented by percentage of the amount of the farnesyl incorporated with the reagent to that without the reagent.

[1] = molecular target: T2, Geranylgeranyl transferase (Bos taurus, UniProt P29702+Q5EAD5); experiment: Geranylgeranyl transferase inhibiting activity (geranylgeranyl pyrophosphate, Ras-CVIL substrate); format: biochemical; conditions: geranylgeranyl transferase purified from bovine brain, read-out: GGtase IC50
T2 construct: Geranylgeranyl transferase was purified from bovine brain; from tissue; host or cells: bovine brain
Method: To evaluate the selective enzyme inhibiting activity of the compound according to the present invention, inhibiting activity on geranylgeranyl transferase was measured. Geranylgeranyl transferase was purified from bovine brain with the method modified from Schber's method(Schber et al., J. Biol. Chem. 1990, 265, 14701). and substantially the same experiment as that of farnesyl transferase was performed using geranylgeranyl pyrophosphate and Ras-CVIL substrate protein under the similar condition to farnesyl transferase reaction.

[2] = system: intracellular Ras farnesyl transferase, Rat2 cell line; experiment: Intracellular Ras farnesyl transferase inhibiting activity in transformed Rat2 cells (35S-methionine labelling, Y13-259 immunoprecipitation, SDS-PAGE); format: cell-based; conditions: Rattus norvegicus; transformed Rat2 fibroblast cell line; concentration inhibiting 50% of farnesyl binding of Ras protein; read-out: Ftase CIC50
Method: In the present experiment, Rat2 cell line which expresses C-Harvey-Ras protein having transforming activity and Rat2 cell line(Korean patent application No. 97-14409) which is transformed with fused protein of H-Ras substituted with polybasic lysine domain at C-terminus of K-Ras were used. The experiment was performed by the modified Declue's method(Declue. J. E. et al., Cancer Research, 1991. 51, 712). Hereinafter, the experimental method will be described in more detail.
3×10^5 cells of transformed Rat2 fibroblast cell line were sprayed on 60 mm cell cultivation dish and cultivated for 48 hours in a cell incubator at 37° C. and after 50% or more of density was reached, it was treated with a reagent. The compound according to the present invention dissolved in dimethylsulfoxide(DMSO) was used as the reagent. 1% of dimethylsulfoxide was used in both control and experimental groups. After 4 hours from the treatment of the reagent, methionine labeled with 150 μCi of radioactive isotope, ^35S per 1 ml of medium, was added and after cultivating for 20 hours, the cells were washed with physiological saline water. The cells were lysed using 1 ml of cool cell lysis buffer solution(50 mM of Sodium Herpiss buffer solution containing 5 mmol of magnesium chloride. 1 mmol of DTT, 1% NP 40, 1 mmol of EDTA, 1 mmol of PMSF, 2 μmol of leupeptin, 2 μmol of pepstatin A and 2 μmol of antipain) and the supernatant was obtained by high-velocity centrifugation of 12,000 g×5 minutes. The amount of the labeled radioisotope of the supernatent was measured and standardized to obtain a quantitative result in immunoprecipitation reaction and then. Y13-259, monoclonal antiboby specifically binding to Ras protein(Furth, M. E. et al., J. Virol, 1982, 43, 294) was added and reacted for 15 hours at 4° C. Protein A bound to goat anti-murine Immunoglobulin antibody-agarose suspension was added to the solution and reacted for 1 hour at 4° C. and then, to remove unspecific binding product, immunoprecipitates were washed with buffer solution(50 mM Tris chloride buffer solution containing 50 mmol of sodium chloride, 0.5% of sodium dioxycolate, 0.5% of NP 40 and 0.1% of SDS). The precipitates were boiled in reagent buffer solution for electrophoresis and then, electrophoresis was performed using 13.5% of SDS polyacrylamide gel. After electrophoresis, the gel was fixed and dried. Then, the gel was exposed to X-ray film, developed and printed. From the result of the experiment, intensities of band of protein with and without farnesyl of Ras protein were measured, and the concentration of reagent inhibiting 50% of farnesyl binding was defined as CIC50, an intracellular Ras farnesyl transferase inhibiting activity.

Row | SMILES | IC50 (Ras farnesyl transferase) [µM] | IC50 [1] [µM] | IC50 [2] [µM]
1 | CSCc1ccc(CN2C(=O)N(CCCn3ccnc3)C(=O)C2(C)c2cccc3ccccc23)cc1 (stereo not drawn) [Compound 27, 3-(3-imidazol-1-yl-propyl)-1-(4-methylsulfanylmethyl-benzyl)-5-methyl-5-naphthalen-1-yl-imidazolidin-2,4-dione] | 0.21 | > 10 | < 20
2 | CC1(c2cccc3ccccc23)C(=O)N(CCCc2cnc[nH]2)C(=O)N1CC(=O)NC(CCS(C)(=O)=O)C(=O)O (stereo not drawn) [Compound 13, 2-(2-{3-[3-(3H-imidazol-4-yl)-propyl]-5-methyl-5-naphthalen-1-yl-2,4-dioxo-imidazolidin-1-yl}-acetylamino)-4-methylsulfonyl-butyric acid] | 0.0015 | > 10 | < 20
3 | CSCCC(NC(=O)CN1C(=O)N(CCc2c[nH]cn2)C(=O)C1(C)c1cccc2ccccc12)C(=O)O (stereo not drawn) [Compound 4, 2-(2-{3-[2-(1H-imidazol-4-yl)-ethyl]-5-methyl-5-naphthalen-1-yl-2,4-dioxo-imidazolidin-1-yl}-acetylamino)-4-methylsulfanyl-butyric acid] | 0.0048 | 0.7 | 10
4 | COC(=O)C(CCSC)NC(=O)CN1C(=O)N(Cc2cnc[nH]2)C(=O)C1(C)c1cccc2ccccc12 (stereo not drawn) [Compound 5, 2-{2-[3-(3H-imidazol-4-yl-methyl)-5-methyl-5-naphthaten-1-yl-2,4-dioxo-imidazolidin-1-yl]-acetylamino}-4-methylsulfanyl-butyric acid methyl ester] | 190 | > 10 | 10
5 | CC1(c2cccc3ccccc23)C(=O)N(CCCn2ccnc2)C(=O)N1Cc1ccc(Br)cc1 (stereo not drawn) [Compound 21, 1-(4-bromo-benzyl)-3-(3-imidazol-1-yl-propyl)-5-methyl-5-naphthalen-1-yl-imidazolidin-2,4-dione] | 0.15 | > 10 | < 20
6 | CSCCC(NC(=O)CN1C(=O)N(CCCn2ccnc2)C(=O)C1(C)c1cccc2ccccc12)C(=O)O (stereo not drawn) [Compound 14, 2-{2-[3-(3-imidazol-1-yl-propyl)-5-methyl-5-naphthalen-1-yl-2,4-dioxo-imidazolidin-1-yl]-acetylamino}-4-methylsulfanyl-butyric acid] | 0.001 | > 10 | < 20
7 | CC1(c2cccc3ccccc23)C(=O)N(CCCn2ccnc2)C(=O)N1Cc1ccc(CN)cc1 (stereo not drawn) [Compound 34, 1-(4-aminomethyl-benzyl)-3-(3-imidazol-1-yl-propyl)-5-methyl-5-naphthalen-1-yl-imidazolidin-2,4-dione] | 2.1 | > 10 | < 20
8 | CC1(c2cccc3ccccc23)C(=O)N(CCCn2ccnc2)C(=O)N1Cc1ccc(C#N)cc1 (stereo not drawn) [Compound 33, 4-[3-(3-imidazol-1-yl-propyl)-5-methyl-5-naphthalen-1-yl-2,4-dioxo-imidazolidin-1-ylmethyl]-benzonitrile] | 1.3 | > 10 | < 20

Further lines, with some results ahead:

Row | IC50 (Ras farnesyl transferase) [µM] | IC50 [1] [µM] | SMILES | IC50 [2] [µM]
9 | 0.016 | > 10 | COC(=O)C(CCSC)NC(=O)CN1C(=O)N(CCCc2cncn2Cc2ccc(C#N)cc2)C(=O)C1(C)c1cccc2ccccc12 (stereo not drawn) [Compound 57, 2-[2-(3-{3-[3-(4-cyanobenzyl)-3H-imidazol-4-yl]-propyl}-5-methyl-5-naphthalen-1-yl-2,4-dioxo-imidazolidin-1-yl)acetylamino]-4-methylsulfanyl-butyric acid methyl ester] | 400
10 | 0.2 | > 10 | CC1(c2cccc3ccccc23)C(=O)N(CCCn2ccnc2)C(=O)N1C(=O)Nc1cccc(C#N)c1 (stereo not drawn) [Compound 66, 3-(3-imidazol-1-yl-propyl)-5-methyl-5-naphthalen-1-yl-2,4-dioxo-imidazolidin-1-carboxylic acid (3-cyano-phenyl)-amide] | < 20
11 | 0.044 | > 10 | CN1C(=O)N(CCCc2cncn2Cc2ccc(C#N)cc2)C(=O)C1(C)c1cccc2ccccc12 (stereo not drawn) [Compound 46, 4-{5-[3-(3-methyl-4-methyl-4-naphthalen-1-yl-2,5-dioxo-imidazolidin-1-yl)-propyl]-imidazol-1-ylmethyl}-benzonitrile] | < 20
12 | 0.8 | > 10 | O=C1CN(c2cccc3ccccc23)C(=O)N1Cc1cncn1Cc1ccc(Cl)cc1 [Compound 73, 3-[3-(4-chloro-benzyl)-3H-imidazol-4-ylmethyl]-1-naphthalen-1-yl-imidazolidin-2,4-dione] | < 10
13 | 0.35 | > 10 | CC1(c2cccc3ccccc23)C(=O)N(CCCn2ccnc2)C(=O)N1Cc1ccc(CNS(C)(=O)=O)cc1 (stereo not drawn) [Compound 37, N-{4-[3-(3-imidazol-1-yl-propyl)-5-methyl-5-naphthalen-1-yl-2,4-dioxo-imidazolidin-1-ylmethyl]-benzyl}-methanesulfonamide] | < 20
14 | 0.53 | > 10 | COCCNC(=O)c1ccc(CN2C(=O)N(CCCn3ccnc3)C(=O)C2(C)c2cccc3ccccc23)cc1 (stereo not drawn) [Compound 41, 4-[3-(3-imidazol-1-yl-propyl)-5-methyl-5-naphthalen-1-yl-2,4-dioxo-imidazolidin-1-ylmethyl]-N-(2-methoxy-ethyl)-benzamide] | < 20
15 | 0.04 | > 10 | COC(=O)C[C@H]1C(=O)N(Cc2cncn2Cc2ccc(C#N)cc2)C(=O)N1Cc1cccc2ccccc12 [Compound 79, {1-[3-(4-cyano-benzyl)-3H-imidazol-4-ylmethyl]-3-naphthalen-1-ylmethyl-2,5-dioxo-imidazolidin-(4S)-yl}-acetic acid methyl ester] | < 10
16 | 0.3 | > 10 | CN1C(=O)N(CCCc2cncn2Cc2ccc(Br)cc2)C(=O)C1(C)c1cccc2ccccc12 (stereo not drawn) [Compound 69, 3-{3-[3-(4-bromo-benzyl)-3H-imidazol-4-yl]-propyl}-1,5-di-methyl-5-naphthalen-1-yl-imidazolidin-2,4-dione] | < 20
17 | 0.44 | > 10 | CC1(c2cccc3ccccc23)NC(=O)N(Cc2cncn2Cc2ccc(C#N)cc2)C1=O (stereo not drawn) [Compound 59, 4-[5-(4-methyl-4-naphthalen-1-yl-2,5-dioxo-imidazolidin-1-ylmethyl)-imidazol-1-ylmethyl]-benzonitrile] | < 20
18 | 0.05 | > 10 | CCOC(=O)CN1C(=O)N(Cc2cncn2Cc2ccc(C#N)cc2)C(=O)C1(C)c1cccc2ccccc12 (stereo not drawn) [Compound 62, {3-[3-(4-cyano-benzyl)-3H-imidazol-4-ylmethyl]-5-methyl-5-naphthalen-1-yl-2,4-dioxo-imidazolidin-1-yl)-acetic acid ethyl ester] | < 20
19 | 1.2 | > 10 | CC1(c2cccc3ccccc23)C(=O)N(CCCn2ccnc2)C(=O)N1Cc1cccc(CNS(C)(=O)=O)c1 (stereo not drawn) [Compound 36, N-{3-[3-(3-imidazol-1-yl-propyl)-5-methyl-5-naphthalen-1-yl-2,4-dioxo-imidazolidin-1-ylmethyl]-benzyl}-methanesulfonamide] | < 20
